Results published in US20130030017A1, “QUINOLINE DERIVATIVES AS ANTIBACTERIAL AGENTS” (priority 2005, published 2013).
≈ marks a conversion by molar mass, not a printed value.

Experiments:
[1] = system: Streptococcus pneumoniae (ATCC6305); assay: Microtitre plate assay, IC90 determination (SPN 6305); assay type: cell-based; settings: 90% inhibitory concentration for bacterial growth, 37° C., resazurin fluorescence; for IC90 SPN 6305: 24 hours; for IC90: Streptococcus pneumoniae, ATCC6305, 24 h
Description: (§1) The bacteria used in this study were grown overnight in flasks containing 100 ml Mueller-Hinton Broth (Becton Dickinson—cat. no. 275730) in sterile de-ionized water, with shaking, at 37° C. Stocks (0.5 ml/tube) were stored at −70° C. until use. Bacteria titrations were performed in microtiter plates and colony forming units (CFUs) were determined. In general, an inoculum level of approximately 100 CFUs was used for susceptibility testing.
(§2) Flat-bottom, sterile 96-well plastic microtiter plates were filled with 180 μl of sterile deionized water, supplemented with 0.25% BSA. Subsequently, stock solutions (7.8× final test concentration) of compounds were added in 45 μl volumes in column 2 Serial five-fold dilutions (45 μl in 180 μl) were made directly in the microtiter plates from column 2 to reach column 11. Untreated control samples with (column 1) and without (column 12) inoculum were included in each microtiter plate. Depending on the bacteria type, approximately 10 to 60 CFU per well of bacteria inoculum (100 TCID50), in a volume of 100 μl in 2.8× Mueller-Hinton broth medium, was added to the rows A to H, except column 12. The same volume of broth medium without inoculum was added to column 12 in row A to H. The cultures were incubated at 37° C. for 24 hours under a normal atmosphere (incubator with open air valve and continuous ventilation). At the end of incubation, one day after inoculation, the bacterial growth was quantitated fluorometrically. Therefore resazurin (0.6 mg/ml) was added in a volume of 20 μl to all wells 3 hours after inoculation, and the plates were re-incubated overnight. A change in colour from blue to pink indicated the growth of bacteria. The fluorescence was read in a computer-controlled fluorometer (Cytofluor Biosearch) at an excitation wavelength of 530 nm and an emission wavelength of 590 nm. The % growth inhibition achieved by the compounds was calculated according to standard methods. The IC90 (expressed in μg/ml) was defined as the 90% inhibitory concentration for bacterial growth.

[2] = system: Staphylococcus aureus (ATCC29213); assay: Microtitre plate assay, IC90 determination (STA 29213); assay type: cell-based; settings: 90% inhibitory concentration for bacterial growth, 37° C., resazurin fluorescence; for IC90 STA 29213: 24 hours; for IC90: Staphylococcus aureus, ATCC29213, 24 h
Description: as §1, §2

COc1nc2ccc(-c3cccs3)cc2cc1C(c1ccccc1)C(O)(CCc1ccccc1)CCN(C)C (racemic) [Compound 64]
IC90 SPN 6305 [1]: 10.7 µg/mL (≈ 19.9 µM) | IC90 STA 29213 [2]: 42.6 µg/mL (≈ 79.4 µM)

COc1ccc2nc(OC)c(C(c3ccccc3)C(O)(CCc3ccccc3)CCN(C)C)cc2c1 (stereo not drawn) [Compound 4]
IC90 SPN 6305 [1]: 9.7 µg/mL (≈ 20 µM) | IC90 STA 29213 [2]: 10.9 µg/mL (≈ 22.5 µM)

COc1nc2ccc(Br)cc2cc1C(c1ccccc1)C(O)(CCc1ccccc1)CCN(C)C (stereo not drawn) [Compound 17]
IC90 SPN 6305 [1]: 4.8 µg/mL (≈ 9 µM) | IC90 STA 29213 [2]: 8.5 µg/mL (≈ 15.9 µM)

COc1nc2ccc(Br)cc2cc1C(c1ccccc1)C(O)(CCc1ccc(C(C)C)cc1)CCN(C)C (stereo not drawn) [Compound 23]
IC90 SPN 6305 [1]: 0.3 µg/mL (≈ 0.521 µM) | IC90 STA 29213 [2]: 16.2 µg/mL (≈ 28.1 µM)

COc1nc2ccc(Br)cc2cc1C(c1ccccc1)C(O)(CCc1ccc(C(C)C)cc1)CCN(C)C (stereo not drawn) [Compound 24]
IC90 [1]: 0.3 µg/mL (≈ 0.521 µM) | IC90 STA 29213 [2]: 2.6 µg/mL (≈ 4.52 µM)

COc1nc2ccc(Br)cc2cc1C(c1ccccc1)C(O)(CCc1ccc(F)cc1)CCN(C)C (stereo not drawn) [Compound 25]
IC90 SPN 6305 [1]: 1.7 µg/mL (≈ 3.08 µM) | IC90 STA 29213 [2]: 7.8 µg/mL (≈ 14.1 µM)

COc1nc2ccc(Br)cc2cc1C(c1ccccc1)C(O)(CCc1ccc(F)cc1)CCN(C)C (stereo not drawn) [Compound 27]
IC90 SPN 6305 [1]: 2.0 µg/mL (≈ 3.63 µM) | IC90 STA 29213 [2]: 1.7 µg/mL (≈ 3.08 µM)

CSc1nc2ccc(C)cc2cc1C(c1ccccc1)C(O)(CCc1ccccc1)CCN(C)C (stereo not drawn) [Compound 30]
IC90 SPN 6305 [1]: 1.9 µg/mL (≈ 3.92 µM) | IC90 STA 29213 [2]: 7.7 µg/mL (≈ 15.9 µM)

CNCCC(O)(CCc1ccc(F)cc1)C(c1ccccc1)c1cc2ccccc2nc1OC (stereo not drawn) [Compound 38]
IC90 SPN 6305 [1]: 0.3 µg/mL (≈ 0.654 µM) | IC90 STA 29213 [2]: 1.5 µg/mL (≈ 3.27 µM)

CNCCC(O)(CCc1ccc(F)cc1)C(c1ccccc1)c1cc2cc(Br)ccc2nc1OC (stereo not drawn) [Compound 40]
IC90 SPN 6305 [1]: 0.3 µg/mL (≈ 0.558 µM) | IC90 STA 29213 [2]: 1.5 µg/mL (≈ 2.79 µM)

COc1nc2ccc(CO)cc2cc1C(c1ccccc1)C(O)(CCc1ccccc1)CCN(C)C (stereo not drawn) [Compound 58]
IC90 [1]: 8.6 µg/mL (≈ 17.7 µM) | IC90 [2]: 8.6 µg/mL (≈ 17.7 µM)

COc1nc2ccc(Br)cc2cc1C(c1ccc(Cl)cc1)C(O)(CCc1ccc(Cl)cc1)CCN(C)C (stereo not drawn) [Compound 75]
IC90 SPN 6305 [1]: 3.4 µg/mL (≈ 5.64 µM) | IC90 STA 29213 [2]: 3.0 µg/mL (≈ 4.98 µM)

COc1nc2ccc(Br)cc2cc1C(c1ccc(Cl)cc1)C(O)(CCc1ccc(Cl)cc1)CCN(C)C (stereo not drawn) [Compound 76]
IC90 SPN 6305 [1]: 0.4 µg/mL (≈ 0.664 µM) | IC90 [2]: 2.1 µg/mL (≈ 3.49 µM)

COc1ccc(C(c2cc3cc(Br)ccc3nc2OC)C(O)(CCc2ccc(F)cc2)CCN(C)C)cc1 (stereo not drawn) [Compound 85]
IC90 SPN 6305 [1]: 2.1 µg/mL (≈ 3.61 µM) | IC90 STA 29213 [2]: 4.1 µg/mL (≈ 7.05 µM)

COc1nc2ccc(Br)cc2cc1C(c1ccc(Cl)cc1)C(O)(CCc1ccc(C)cc1)CCN(C)C (stereo not drawn) [Compound 86]
IC90 [1]: 2.1 µg/mL (≈ 3.61 µM) | IC90 STA 29213 [2]: 41.2 µg/mL (≈ 70.8 µM)

COc1nc2ccc(Br)cc2cc1C(c1ccc(Cl)cc1)C(O)(CCc1ccc(C(F)(F)F)cc1)CCN(C)C (stereo not drawn) [Compound 89]
IC90 [1]: 2.3 µg/mL (≈ 3.62 µM) | IC90 [2]: 22.6 µg/mL (≈ 35.5 µM)

COc1nc2ccc(Br)cc2cc1C(c1ccc(Cl)cc1)C(O)(CCc1cccc(OC(F)(F)F)c1)CCN(C)C (stereo not drawn) [Compound 90]
IC90 SPN 6305 [1]: 2.6 µg/mL (≈ 3.99 µM) | IC90 STA 29213 [2]: 16.4 µg/mL (≈ 25.2 µM)

COc1nc2ccc(Br)cc2cc1C(c1ccc(Cl)cc1)C(O)(CCc1cccc(OC(F)(F)F)c1)CCN(C)C (stereo not drawn) [Compound 91]
IC90 SPN 6305 [1]: 0.3 µg/mL (≈ 0.46 µM) | IC90 [2]: 32.7 µg/mL (≈ 50.2 µM)
